Assay results published in patent US11155849B2, “IMP-producing microorganism and method of producing IMP using the same” (CJ CHEILJEDANG CORPORATION, priority 2017, dated 2021).

Experiments:
ATCC6872 = test: Resistance/susceptibility of strain ATCC6872 to substances (minimal medium, 1.7% agar); format: cell-based, Corynebacterium stationis
From the text: (§1) ATCC6872 (10^7 cells/mL to 10^8 cells/mL) was suspended in a phosphate buffer (pH 7.0) or in a citrate buffer (pH 5.5) in order to prepare an ATCC6872-derived IMP-producing strain, and then mutation was induced by UV treatment. The resultants were washed twice with a 0.85% saline solution, and then diluted and smeared on a medium containing an appropriate concentration of a substance to be resistant to a minimal medium containing 1.7% agar. Thereafter, colonies were obtained. Each colony was cultured in a nutrient medium and cultured in a seed medium for 24 hours. After 3 to 4 days of culturing in a fermentation medium, colonies with the highest amount of IMP accumulated in the culture medium were selected. In order to produce a high-concentration IMP producing-strain, and to provide adenine auxotrophy, guanine leakage, lysozyme susceptibility, 3,4-dihydroproline resistance, streptomycin resistance, azetidine carboxylic acid resistance, thiaproline resistance, azaserine resistance, sulfaguanidine resistance, norvaline resistance, and trimethoprim resistance, the procedures above were performed sequentially for each substance.
(§2) The compositions of the media are as follows: • Minimal medium: 2% glucose, 0.3% sodium sulfate, 0.1% […], 0.3% K2HPO4, 0.3% magnesium sulfate, calcium chloride (10 mg/L), iron sulfate (10 mg/L), zinc sulfate (1 mg/L), manganese chloride (3.6 mg/L), L-cysteine (20 mg/L), calcium pantothenate (10 mg/L), thiamine hydrochloride (5 mg/L), biotin (30 μg/L), adenine (20 mg/L), guanine (20 mg/L), pH 7.3 • Nutrient medium: 1% peptone, 1% meat juice, 0.25% sodium chloride, 1% yeast extract, 2% agar, pH 7.2 • Seed medium: 1% glucose, 1% peptone, 1% meat juice, 1% yeast extract, 0.25% sodium chloride, adenine (100 mg/L), guanine (100 mg/L), pH 7.5 • Fermentation medium: 0.1% sodium glutamate, 1% ammonium chloride, 1.2% magnesium sulfate, 0.01% calcium chloride, iron sulfate (20 mg/L), manganese sulfate (20 mg/L), zinc sulfate (20 mg/L), copper sulfate (5 mg/L), L-cysteine (23 mg/L), alanine (24 mg/L), nicotinic acid (8 mg/L), biotin (45 μg/L), thiamin hydrochloride (5 mg/L), adenine (30 mg/L), 1.9% phosphoric acid (85%), 2.55% glucose, 1.45% fructose

CJI0323 = format: cell-based, Corynebacterium stationis; settings: strain CJI0323
From the text: as §1, §2

Compound | resistance (ATCC6872) [µg/mL] | resistance (CJI0323) [µg/mL] | Lysozyme susceptibility (ATCC6872) [µg/mL] | Lysozyme susceptibility (CJI0323) [µg/mL]
O=C(O)C1C=CCN1 (stereo not drawn) [3,4-Dihydroproline] | 1000 | 3500 |  | 
[N-]=[N+]=CC(=O)OC[C@H](N)C(=O)O [Azaserine] | 25 | 100 |  | 
O=C(O)[C@@H]1CCN1 [Azetidine carboxylic acid] | 5000 | 30000 |  | 
CCC[C@H](N)C(=O)O [Norvaline] | 200 | 2000 |  | 
[H]/N=C(/N)N[C@H]1[C@H](O)[C@@H](O)[C@H](O[C@@H]2O[C@@H](C)[C@](O)(C=O)[C@H]2O[C@@H]2O[C@@H](CO)[C@H](O)[C@@H](O)[C@@H]2NC)[C@@H](N/C(N)=N\[H])[C@@H]1O [Streptomycin] | 500 | 2000 |  | 
[H]/N=C(/N)NS(=O)(=O)c1ccc(N)cc1 [Sulfaguanidine] | 50 | 200 |  | 
O=C(O)[C@@H]1CSCN1 [Thiaproline] | 10 | 100 |  | 
COc1cc(Cc2cnc(N)nc2N)cc(OC)c1OC [Trimethoprim] | 20 | 100 |  | 
Lysozyme |  |  | 80 | 8
